# Reference: patent US5708033A, “Amide derivatives and their therapeutic use” (Glaxo Wellcome Inc., priority 1994, dated 1998)
# Where two headings read alike, the source gives them in different places.
# How the values were obtained:
# Type in all cases: in vivo, rat (Lewis male)
# [1] = tested on: rat pleura (carrageenan-induced cell accumulation and edema formation); assay: modification of the standard carrageenan pleurisy assay (anti-inflammatory activity); details: po, p.o. gavage to fasted rats 0.5 hr prior to intrapleural 50 μg carrageenan, exudate after 4 hr
# Protocol: The rats used in these experiments were Lewis males, weighing 160-180 g, assigned to groups consisting of 5 animals. Test compounds were given to fasted rats by oral gavage 0.5 hr prior to intrapleural injection of 50 μg carrageenan. After 4 hr, the pleural exudate was collected and the edema volume and cell number were determined. ED50 values were estimated by linear regression analysis, and represent the doses at which a given drug produced 50% inhibition of carrageenan-induced cell accumulation and edema formation within the rat pleura.
# [2] = tested on: phalanges of one hind limb (algesic response); assay: phalanges algesic assay (strong analgesia); details: p.o. gavage to fasted rats, mechanical force clamp one hour later, 3 seconds maximum; for ED50: Rattus norvegicus, po, 1 h, read-out: p.o. ED50 (strong analgesia, 50% inhibition of latency response)
# Protocol: The rats used in these studies were Lewis male weighing 160-180 g and assigned to groups of 5-6 animals. The phalanges algesic assay is an algesic test (no hyperalgesia). Test compounds were given to fasted rats by oral gavage. One hour later an F-shaped mechanical force clamp was applied to the phalanges of one hind limb which initiated an algesic response (vocalisation or flight). Latency (seconds) to the algesic response was determined with 3 seconds maximum allowed time. ED50 values were estimated by linear regression analysis and represent the dose at which a given compound extended the latency response to produce 50% inhibition using the formula:
# (3 sec.-Control Latency)-(3 sec.-Test Latency)/3 sec.-Control
# [3] = tested on: rat hind limb (trypsin-induced hyperalgesia); assay: modification of the trypsin-induced rat hind limb hyperalgesic assay (mild analgesia); details: po, 1 h, p.o. gavage to fasted rats 0.5 hours prior to subplantar 250 μg trypsin, evaluated one hour later, 4 seconds maximum latency, read-out: p.o. ED50 (mild analgesia, 50% inhibition of latency response)
# Protocol: The rats used in these studies were Lewis male, weighing 160-180 g. and assigned to groups consisting of 5-6 animals. Test compounds were given to fasted rats by oral gavage 0.5 hours prior to the subplantar injection of 250 μg trypsin in one hind limb. One hour later the rats were evaluated for hyperalgesia using a F-shaped mechanical force clamp on the injected hind limb metatarsal area. Latency (seconds) to the algesic response (vocalisation or flight) was determined, with 4 seconds being the maximum latency allowed. ED50 values were estimated by linear regression analysis and represent the dose at which a given drug extended the latency response to produce 50% inhibition using the formula:
# (4 sec.-Control Latency)-(4 sec.-Test Latency)/4 sec.--Control
# [4] = read-out: p.o. ED50, Cells (50% inhibition of carrageenan-induced cell accumulation)
# [5] = read-out: p.o. ED50, Edema (50% inhibition of edema formation)
SMILES,"ED50 [1, 4] [mg/kg]","ED50 [1, 5] [mg/kg]",ED50 [2] [mg/kg],ED50 [3] [mg/kg],"p.o. ED50 (strong analgesia, 50% inhibition of latency response) [2]"
"NC(=O)/C=C1\CCc2c(Br)cc(F)cc21 [Example 7, (E)-2-(4-Bromo-6-Fluoro-1-indanylidene)acetamide]",> 20,> 20,> 45,–,–
"NC(=O)/C=C1\CCc2c(F)cc(Cl)cc21 [Example 6, (E)-2-(6-Chloro-4-Fluoro-1-indanylidene)acetamide]",> 25,> 25,> 45,> 10,–
"Cc1cc(Cl)c2c(c1)/C(=C/C(N)=O)CC2 [Example 8, (E)-2-(4-Chloro-6-methyl-1-indanylidene)acetamide]",> 25,> 25,–,–,Inactive at 45
"NC(=O)/C=C1\CCc2c(Cl)cc(Cl)cc21 [Example 3, (E)-2-(4,6-Dichloro-1-indanylidene)acetamide]",25,20,> 45,4,–
"CNC(=O)/C=C1\CCc2c(Cl)cc(F)cc21 [Example 1, (E)-2-(4-Chloro-6-fluoro-1-indanylidene)-N-Methylacetamide]",8,5,60,2,–
"NC(=O)/C=C1\CCc2c(Cl)cc(F)cc21 [Example 2, (E)-2-(4-Chloro-6-fluoro-1-indanylidene)acetamide]",11,11,30,4,–
